System: HMG-CoA reductase
Experiment: action on the enzyme HMG-CoA reductase (further experimental data)
Source text: Therefore, the functional bread to which vegetable extracts have been added according to the present invention is capable of exerting a functional, salutary action in prevention and treatment of cholesterol and triglyceride levels exceeding the reference values, in addition to an action of protecting the arteries and the cardio-circulatory system and a hepatoprotective and antioxidant action, thanks to the synergistic biochemical actions of the phytocomplexes included in the bread, which enable an enhanced bioactivity thereof to be obtained in the resulting product.

CCCCCCCCCCCCCCCCCCCCCCCCCCCCO [octacosanol]
action on the enzyme HMG-CoA reductase: reducing the quantity thereof

Reference: US20140105879A1, “FLOUR-BASED FUNCTIONAL FOOD” (priority 2011, published 2014)
